How the values were obtained:
[1] = Mechanical pain threshold after SNI, morphine analgesia; assay type: in vivo; conditions: single S.C. injection, n=4
Description: FIG. 23. […] B. Analgesic effect of single S.C. injection of morphine on MT post-injury (SNI+MOR, n=4). Mean±SEM; F=4.62, *p<0.05 by one-way ANOVA before and after treatment; mean difference and 95% CI=−7.3, −14.5 to −0.135, p<0.05 by Bonferroni's Multiple Comparison test. 20 mg/Kg of MOR (n=4; F=19.03, **p<0.001 by one-way ANOVA).

[2] = Conditioned Place Preference after morphine in SNI mice; assay type: in vivo; conditions: 4 doses
Source text: FIG. 24. Conditioned Place Preference (CPP) after conditioning with saline (control) and 4 doses of morphine (MOR) in SNI mice.

CN1CC[C@]23c4c5ccc(O)c4O[C@H]2[C@@H](O)C=C[C@H]3[C@H]1C5 [morphine]
mechanical pain threshold (MT), mean difference before and after treatment [1]: −7.3 | Conditioned Place Preference (CPP) [2]: induced CPP in a dose-dependent manner

From patent US12180255B2, “Compositions and methods for derepressing RE1 silencing transcription factor target genes” (Alcamena Stem Cell Therapeutics, LLC, priority 2019, dated 2024)
